Measured values taken from patent EP0076669A1, “Novel 3-phenyl-1-indanamines, pharmaceutical compositions and methods of preparation” (KEFALAS A/S, priority 1981, dated 1983).
Structures can show the parent of a compound that is named as a salt.

Assays:
[1] = tested on: tetrabenazine induced ptosis; test: Tetrabenazine ptosis antagonism; type: in vivo; settings: Mus musculus, ip, 0.5 h; i.p., mice; tetrabenazine 40 mg/kg i.p. 30 min after test substance
Description: For insoluble substances the doses 0, 1/8, 1/32 and 1/128 of "i.^p. LD50" are used. 3 mice are used for each dose level. Thirty minutes after administration of test substance, tetrabenazine, 40 mg/kg, is injected i.p. Ptosis is evaluated 30 minutes after administration of tetrabenazine, the following rating scale being used: 0 = normal eyes, 1=1/4 closed eyes, 2 = 1/2 closed eyes, 3 = 3/4 closed eyes and 4 = completely closed eyes. Ptosis is evaluated 30 seconds after tilting the cage 3 times. The tilting is carried out in such a way that the animals slide along the floor of the cage.
The results are recorded as % inhibition of ptotic score calculated on the basis of the score of the control group. If ptotic score for the control group is < 10 the test is rejected and another is performed. The registration can also be done as an on line procedure.

potentiation of 5-HTP = test: 5-HTP potentiation (5-HTP syndrome); type: in vivo; settings: Mus musculus, ip, 0.5 h; i.p., mice; 5-HTP 100 mg/kg i.v. 30 min after test substance; read-out: 5-HTP potentation,ED50
Description: The test substance is given i.p. or p.o. in the doses 10, 10, 2.5, 0.63 and 0 mg/kg. Three mice are used for each dose level. One of the groups on the highest dose is used as control of the compounds own effect. […] Thirty minutes after administration of test substance, 5-HTP, 100 mg/kg i.v. is given (injection time 5-10 sec.). After this 5-HTP dose the animals remain unaffected. If the animals have been pretreated with a substance, which inhibits the re-uptake of 5-HT, a 5-HTP syndrome will occur. This is characterized by the following symptoms: 1) excitation, 2) tremor, and 3) abduction of the hind limbs.
After the administration of 5-HTP the animals are observed for 15 minutes and each animal is given one point for each symptom present. Thus, the maximal score for a group consisting of 3 mice is 9.
The results are stated as fractions: 0/9, 1/9, 2/9 ..... 8/9, 9/9, where 0, 1, 2 ..... 8, 9 are the number of points per group after the dose in question.

Row | SMILES | ED50 [1] [µmol/kg] | ED50 (potentiation of 5-HTP) [µmol/kg]
1 | CN(C)[C@@H]1C[C@@H](c2ccc(F)cc2)c2ccc(F)cc21 (relative stereo) [Lu 13-114-c] | 28 | > 130
2 | CN(C)[C@@H]1C[C@@H](c2ccc(F)cc2)c2ccc(C(F)(F)F)cc21 (relative stereo) [Lu 18-047-c] | 166 | 
3 | CN(C)[C@@H]1C[C@@H](c2ccc(Cl)c(Cl)c2)c2ccccc21 (relative stereo) [Lu 18-118] | 83 | 5
4 | CN(C)[C@@H]1C[C@@H](c2ccc(Cl)cc2Cl)c2ccccc21 (relative stereo) [Lu 18-136-c] | 23 | 19
5 | CCN(CC)[C@@H]1C[C@@H](c2ccc(Cl)c(Cl)c2)c2ccccc21 (relative stereo) [Lu 18-187-c] | 52 | 19
6 | CN[C@@H]1C[C@@H](c2ccc(Cl)c(Cl)c2)c2ccccc21 (relative stereo) [Lu 19-005-c, trans-N-methyl-3-(3',4'-dichlorophenyl)-I-indanamine] |  | 6.7
7 | CN[C@@H]1C[C@H](c2ccc(Cl)c(Cl)c2)c2ccccc21 (relative stereo) [Lu 19-006-c, cis-N-methyl-3-(3',4'-dichlorophenyl)-1-indanamine] | 5.8 | 
8 | CN(C)[C@@H]1C[C@@H](c2ccc(F)cc2)c2ccccc21 (relative stereo) [Lu 19-007-c] | 7.8 | 45
9 | CN(C)[C@@H]1C[C@@H](c2ccccc2)c2ccccc21 (relative stereo) [Lu 19-026-c, reference compound] | 17 | > 35
10 | CCN[C@@H]1C[C@@H](c2ccc(Cl)c(Cl)c2)c2ccccc21 (relative stereo) [Lu 19-040-c] | > 7 | 26
11 | CCCN(CCC)[C@@H]1C[C@@H](c2ccc(Cl)c(Cl)c2)c2ccccc21 (relative stereo) [Lu 19-042-c] | > 25 | > 100
12 | CCCN(CCC)[C@@H]1C[C@H](c2ccc(Cl)c(Cl)c2)c2ccccc21 (relative stereo) [Lu 19-043-c] | > 100 | > 100
13 | CN(C)[C@@H]1C[C@@H](c2ccc(Br)cc2)c2ccccc21 (relative stereo) [Lu 19-056] | 10 | 8
14 | CN(C)[C@@H]1C[C@H](c2ccc(Br)cc2)c2ccccc21 (relative stereo) [Lu 19-057] | 3.9 | 12
15 | CN(C)[C@@H]1C[C@@H](c2ccc(C#N)cc2)c2ccc(F)cc21 (relative stereo) [Lu 19-070-c] | 45 | 25
16 | Clc1ccc([C@@H]2C[C@@H](NCc3ccccc3)c3ccccc32)cc1Cl (relative stereo) [Lu 19-071-c] | > 25 | > 25
17 | OCCN[C@@H]1C[C@@H](c2ccc(Cl)c(Cl)c2)c2ccccc21 (relative stereo) [Lu 19-074-c] | 75 | 270
18 | Clc1ccc([C@@H]2C[C@@H](NCCc3ccccc3)c3ccccc32)cc1Cl (relative stereo) [Lu 19-078-c] | 33 | 142
19 | OCCN(CCO)[C@@H]1C[C@@H](c2ccc(Cl)c(Cl)c2)c2ccccc21 (relative stereo) [Lu 19-082-c] | 104 | > 99
20 | Clc1ccc([C@@H]2C[C@@H](NCC=Cc3ccccc3)c3ccccc32)cc1Cl (relative stereo) [Lu 19-083-o] | > 83 | > 83
21 | CN[C@@H]1C[C@@H](c2ccc(F)c(Cl)c2)c2ccccc21 (relative stereo) [Lu 19-085-c, trans-N-methyl-3-(3'-chloro-4'-fluorophenyl)-I-indanamine hydrochloride] | 51 | 47
22 | CN[C@@H]1C[C@@H](c2ccc(F)cc2)c2ccc(C)cc21 (relative stereo) [Lu 19-092-c] | 34 | 63
23 | CN[C@@H]1C[C@H](c2ccccc2)c2ccccc21 (relative stereo) [Lu 19-094] | > 154 | 211
24 | CN(C)[C@@H]1C[C@@H](c2ccc(F)c(F)c2)c2ccccc21 (relative stereo) [Lu 19-095-c] | 7.1 | 73
25 | CN[C@@H]1C[C@@H](c2ccc(F)cc2)c2ccc(F)cc21 (relative stereo) [Lu 19-097-c] |  | 94

Row | SMILES | ED50 [1] [µmol/kg] | ED50 (potentiation of 5-HTP) [µmol/kg]
26 | CN[C@@H]1C[C@@H](c2ccc(F)c(F)c2)c2ccccc21 (relative stereo) [Lu 19-098-c] |  | 22
27 | CN[C@@H]1C[C@@H](c2ccc(Cl)cc2Cl)c2ccccc21 (relative stereo) [Lu 19-099-c] | 19 | 67
28 | CN(C)[C@@H]1C[C@@H](c2ccc(F)c(Cl)c2)c2ccccc21 (relative stereo) [Lu 19-100-c, trans N,N-dimethyl-3-(3-chloro-4-fluorophenyi)-1-indanamine] | 4 | 37
29 | CN(C)[C@@H]1C[C@H](c2ccc(F)c(Cl)c2)c2ccccc21 (relative stereo) [Lu 19-101-c, cis-N,N-dimethyl-3-(3-chloro-4-fluorophenyl)-1-indanamine, hydrochloride] | 24 | 51
30 | CN[C@@H]1C[C@@H](c2ccc(Br)cc2)c2ccccc21 (relative stereo) [Lu 19-102-c] | 4 | 8.8
31 | CN[C@@H]1C[C@H](c2ccc(Br)cc2)c2ccccc21 (relative stereo) [Lu 19-103-c] | 29 | 6.6
32 | CN[C@@H]1C[C@H](c2ccc(F)c(F)c2)c2ccccc21 (relative stereo) [Lu 19-104-c, cis-N-methyl-3-(3,4-difluorophenyl)-1-indanamine] | 23 | 63
33 | CCN(C)[C@@H]1C[C@@H](c2ccc(F)c(Cl)c2)c2ccccc21 (relative stereo) [Lu 19-105-o, trans N-ethyl-N-methyl-N-3-(3'-chloro-4'-fluorophenyl)-indanamine] | 12 | 95
34 | CN[C@@H]1C[C@H](c2ccc(F)cc2)c2ccccc21 (relative stereo) [Lu 19-108-c, cis N-methyl-3-(4'-fluorophenyl)-1-indanamine, hydrochloride] | 79 | 72
35 | CN[C@@H]1C[C@@H](c2ccc(F)cc2)c2ccccc21 (relative stereo) [Lu 19-109-c] | 6.3 | > 36
36 | CN[C@@H]1C[C@H](c2cccc(Cl)c2)c2ccccc21 (relative stereo) [Lu 19-110-c] | 142 | 124
37 | CN[C@@H]1C[C@@H](c2cccc(Cl)c2)c2ccccc21 (relative stereo) [Lu 19-111-c] | 45 | 92
38 | CN[C@@H]1C[C@H](c2ccc(Cl)cc2Cl)c2ccccc21 (relative stereo) [Lu 19-113-c] | 98 | 71
39 | CN(C)[C@@H]1C[C@@H](c2cccc(Cl)c2)c2ccccc21 (relative stereo) [Lu 19-115-c] | 10 | 43
40 | CN(C)[C@@H]1C[C@H](c2cccc(Cl)c2)c2ccccc21 (relative stereo) [Lu 19-116-c] | 85 | 78
41 | CN[C@@H]1C[C@@H](c2ccc(Cl)cc2)c2ccccc21 (relative stereo) [Lu 19-119] | > 155 | 34
42 | CN[C@@H]1C[C@H](c2ccc(Cl)cc2)c2ccccc21 (relative stereo) [Lu 19-120-c] | > 34 | 23
43 | CN(C)[C@@H]1C[C@@H](c2ccc(Cl)cc2)c2ccccc21 (relative stereo) [Lu 19-121] | 66 | 18
44 | CN(C)[C@@H]1C[C@H](c2ccc(Cl)cc2)c2ccccc21 (relative stereo) [Lu 19-124] | 43 | 109
45 | CN[C@@H]1C[C@@H](c2ccc(Cl)c(Cl)c2)c2ccc(F)cc21 (relative stereo) [Lu 19-136-c] | 33 | 27
46 | CN[C@@H]1C[C@H](c2ccc(Cl)c(Cl)c2)c2ccc(F)cc21 (relative stereo) [Lu 19-137-c] | 15 | 34
47 | CN(C)[C@@H]1C[C@@H](c2ccc(Cl)c(Cl)c2)c2ccc(F)cc21 (relative stereo) [Lu 19-143-c] | > 111 | 14
48 | CN[C@@H]1C[C@@H](c2ccc(Cl)c(Cl)c2)c2ccccc21 (single isomer, unassigned) [Lu 20-042-c, (+) trans N-methyl-3-(3,4-dichlorophenyl)-1-indanamine, hydrochloride] | 7.6 | 
49 | CNC1CC(c2ccc(Cl)c(Cl)c2)c2ccccc21 (single isomer, unassigned; (-)) [Lu 20-043-c, (-) trans N-methyl-3-(3,4-dichlorophenyl)-1-indanamine, hydrochloride] |  | 16
